According to US20240059671A1, “TYROSINE KINASE 2 (TYK2) DEGRADATION COMPOUNDS AND METHODS OF USE” (CULLGEN (SHANGHAI), INC., priority 2020, published 2024):

Molecular target: TYK2 (Homo sapiens, UniProt P29597)
Experiment: TYK2 protein degradation in NOMO-1 cells by immunoblotting
Format: cell-based
Design: endogenous in cells
Details: NOMO-1 cells
In short: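 NOMO-1 cells in RPMI 1640 with 10% FBS were exposed to compound at 0.1–1000 nM for 16 hours. TYK2 levels in RIPA lysates were measured by SDS-PAGE immunoblot with chemiluminescent detection and band densitometry.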

Chain of TYK2 (P29597 whole entry): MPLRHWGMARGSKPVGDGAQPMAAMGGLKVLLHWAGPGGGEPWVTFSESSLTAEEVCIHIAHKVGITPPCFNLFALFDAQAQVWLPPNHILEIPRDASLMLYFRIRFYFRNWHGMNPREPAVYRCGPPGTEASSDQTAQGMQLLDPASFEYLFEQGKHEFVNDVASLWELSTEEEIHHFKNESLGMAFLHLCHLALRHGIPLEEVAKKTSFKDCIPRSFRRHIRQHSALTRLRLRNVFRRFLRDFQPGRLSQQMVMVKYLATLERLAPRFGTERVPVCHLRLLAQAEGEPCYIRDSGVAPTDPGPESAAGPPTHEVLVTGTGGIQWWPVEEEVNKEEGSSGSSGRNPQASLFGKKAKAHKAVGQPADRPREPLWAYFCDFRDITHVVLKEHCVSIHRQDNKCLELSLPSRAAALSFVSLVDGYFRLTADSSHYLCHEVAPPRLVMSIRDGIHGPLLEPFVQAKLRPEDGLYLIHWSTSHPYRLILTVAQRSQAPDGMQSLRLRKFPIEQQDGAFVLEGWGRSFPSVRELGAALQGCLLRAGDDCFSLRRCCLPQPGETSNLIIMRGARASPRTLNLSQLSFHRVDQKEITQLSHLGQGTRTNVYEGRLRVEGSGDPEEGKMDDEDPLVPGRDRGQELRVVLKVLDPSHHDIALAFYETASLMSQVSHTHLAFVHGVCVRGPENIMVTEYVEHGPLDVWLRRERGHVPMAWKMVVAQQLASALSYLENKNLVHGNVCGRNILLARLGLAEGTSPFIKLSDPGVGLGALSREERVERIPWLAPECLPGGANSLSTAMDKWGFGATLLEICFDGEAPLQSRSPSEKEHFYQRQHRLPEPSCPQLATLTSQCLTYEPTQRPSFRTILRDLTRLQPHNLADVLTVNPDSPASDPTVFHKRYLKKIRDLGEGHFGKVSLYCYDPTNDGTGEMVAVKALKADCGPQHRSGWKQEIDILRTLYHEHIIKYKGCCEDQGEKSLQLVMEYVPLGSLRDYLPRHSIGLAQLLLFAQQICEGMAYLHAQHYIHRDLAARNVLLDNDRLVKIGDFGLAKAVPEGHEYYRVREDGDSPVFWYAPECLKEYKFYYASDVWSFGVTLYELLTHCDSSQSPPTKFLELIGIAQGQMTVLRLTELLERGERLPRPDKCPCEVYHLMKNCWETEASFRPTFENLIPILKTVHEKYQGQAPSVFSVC

CNC(=O)c1nnc(Nc2ccc(C#CC3CN(C(=O)CCCC(=O)N[C@H](C(=O)N4C[C@H](O)C[C@H]4C(=O)N[C@@H](C)c4ccc(-c5scnc5C)cc4)C(C)(C)C)C3)cn2)cc1Nc1cccc(-c2ncn(C)n2)c1OC [CPD-135, 6-((5-((1-(5-(((S)-1-((2S,4R)-4-Hydroxy-2-(((S)-1-(4-(4-methylthiazol-5-yl)phenyl)ethyl)carbamoyl)pyrrolidin-1-yl)-3,3-dimethyl-1-oxobutan-2-yl)amino)-5-oxopentanoyl)azetidin-3-yl)ethynyl)pyridin-2-yl)amino)-4-((2-methoxy-3-(1-methyl-1H-1,2,4-triazol-3-yl)phenyl)amino)-N-methylpyridazine-3-carboxamide]
TYK2 Degradation (NOMO-1, 10 nM): B (B: <60% TYK2 degradation, and >20% TYK2 degradation)
TYK2 Degradation (NOMO-1, 100 nM): A (A: ≥60% TYK2 degradation)

CNC(=O)c1nnc(Nc2ccc(C#CC3CCN(CCCCC(=O)N[C@H](C(=O)N4C[C@H](O)C[C@H]4C(=O)N[C@@H](C)c4ccc(-c5scnc5C)cc4)C(C)(C)C)CC3)cn2)cc1Nc1cccc(-c2ncn(C)n2)c1OC [CPD-160, 6-((5-((1-(5-(((S)-1-((2S,4R)-4-hydroxy-2-(((S)-1-(4-(4-methylthiazol-5-yl)phenyl)ethyl)carbamoyl)pyrrolidin-1-yl)-3,3-dimethyl-1-oxobutan-2-yl)amino)-5-oxopentyl)piperidin-4-yl)ethynyl)pyridin-2-yl)amino)-4-((2-methoxy-3-(1-methyl-1H-1,2,4-triazol-3-yl)phenyl)amino)-N-methylpyridazine-3-carboxamide]
TYK2 Degradation (NOMO-1, 100 nM): C (C: ≤20% TYK2 degradation)

CNC(=O)c1nnc(Nc2ccc(C#CC3CN(C(=O)CCCCCCCCC(=O)N[C@H](C(=O)N4C[C@H](O)C[C@H]4C(=O)N[C@@H](C)c4ccc(-c5scnc5C)cc4)C(C)(C)C)C3)cn2)cc1Nc1cccc(-c2ncn(C)n2)c1OC [CPD-127, 6-((5-((1-(10-(((S)-1-((2S,4R)-4-hydroxy-2-(((S)-1-(4-(4-methylthiazol-5-yl)phenyl)ethyl)carbamoyl)pyrrolidin-1-yl)-3,3-dimethyl-1-oxobutan-2-yl)amino)-10-oxodecanoyl)azetidin-3-yl)ethynyl)pyridin-2-yl)amino)-4-((2-methoxy-3-(1-methyl-1H-1,2,4-triazol-3-yl)phenyl)amino)-N-methylpyridazine-3-carboxamide]
TYK2 Degradation (NOMO-1, 10 nM): A (A: ≥60% TYK2 degradation)
TYK2 Degradation (NOMO-1, 100 nM): A (A: ≥60% TYK2 degradation)

CNC(=O)c1nnc(Nc2ccc(C(=O)NCCCCCCNc3cccc4c3C(=O)N(C3CCC(=O)NC3=O)C4=O)cn2)cc1Nc1cccc(-c2ncn(C)n2)c1OC (stereo not drawn) [CPD-156, 6-((5-((6-((2-(2,6-Dioxopiperidin-3-yl)-1,3-dioxoisoindolin-4-yl)amino)hexyl)carbamoyl)pyridin-2-yl)amino)-4-((2-methoxy-3-(1-methyl-1H-1,2,4-triazol-3-yl)phenyl)amino)-N-methylpyridazine-3-carboxamide]
TYK2 Degradation (NOMO-1, 100 nM): B (B: <60% TYK2 degradation, and >20% TYK2 degradation)

CNC(=O)c1nnc(Nc2ccc(CNC(=O)CCCCCCCC(=O)N[C@H](C(=O)N3C[C@H](O)C[C@H]3C(=O)N[C@@H](C)c3ccc(-c4scnc4C)cc3)C(C)(C)C)cn2)cc1Nc1cccc(-c2ncn(C)n2)c1OC [CPD-132, N1-((S)-1-((2S,4R)-4-Hydroxy-2-(((S)-1-(4-(4-methylthiazol-5-yl)phenyl)ethyl)carbamoyl)pyrrolidin-1-yl)-3,3-dimethyl-1-oxobutan-2-yl)-N9-((6-((5-((2-methoxy-3-(1-methyl-1H-1,2,4-triazol-3-yl)phenyl)amino)-6-(methylcarbamoyl)pyridazin-3-yl)amino)pyridin-3-yl)methyl)nonanediamide]
TYK2 Degradation (NOMO-1, 100 nM): A (A: ≥60% TYK2 degradation)

CNC(=O)c1nnc(Nc2ccc(C(=O)NC3CC(CC(=O)N[C@H](C(=O)N4C[C@H](O)C[C@H]4C(=O)N[C@@H](C)c4ccc(-c5scnc5C)cc4)C(C)(C)C)C3)cn2)cc1Nc1cccc(-c2ncn(C)n2)c1OC (stereo partly drawn) [CPD-161, 6-((5-((3-(2-(((S)-1-((2S,4R)-4-hydroxy-2-(((S)-1-(4-(4-methylthiazol-5-yl)phenyl)ethyl)carbamoyl)pyrrolidin-1-yl)-3,3-dimethyl-1-oxobutan-2-yl)amino)-2-oxoethyl)cyclobutyl)carbamoyl)pyridin-2-yl)amino)-4-((2-methoxy-3-(1-methyl-1H-1,2,4-triazol-3-yl)phenyl)amino)-N-methylpyridazine-3-carboxamide]
TYK2 Degradation (NOMO-1, 10 nM): C (C: ≤20% TYK2 degradation)
TYK2 Degradation (NOMO-1, 100 nM): A (A: ≥60% TYK2 degradation)

CNC(=O)c1nnc(Nc2ccc(C#CC3CCN(C(=O)CCCCC(=O)N[C@H](C(=O)N4C[C@H](O)C[C@H]4C(=O)N[C@@H](C)c4ccc(-c5scnc5C)cc4)C(C)(C)C)CC3)cn2)cc1Nc1cccc(-c2ncn(C)n2)c1OC [CPD-117, 6-((5-((1-(6-(((S)-1-((2S,4R)-4-Hydroxy-2-(((S)-1-(4-(4-methylthiazol-5-yl)phenyl)ethyl)carbamoyl)pyrrolidin-1-yl)-3,3-dimethyl-1-oxobutan-2-yl)amino)-6-oxohexanoyl)piperidin-4-yl)ethynyl)pyridin-2-yl)amino)-4-((2-methoxy-3-(1-methyl-1H-1,2,4-triazol-3-yl)phenyl)amino)-N-methylpyridazine-3-carboxamide]
TYK2 Degradation (NOMO-1, 10 nM): C (C: ≤20% TYK2 degradation)
TYK2 Degradation (NOMO-1, 100 nM): A (A: ≥60% TYK2 degradation)

CNC(=O)c1nnc(Nc2ccc(N3CCN(C(=O)CCCCCCC(=O)N[C@H](C(=O)N4C[C@H](O)C[C@H]4C(=O)NCc4ccc(C#N)cn4)C(C)(C)C)CC3)cn2)cc1Nc1cccc(-c2ncn(C)n2)c1OC [CDD-172, 6-((5-(4-(8-(((S)-1-((2S,4R)-2-(((5-cyanopyridin-2-yl)methyl)carbamoyl)-4-hydroxypyrrolidin-1-yl)-3,3-dimethyl-1-oxobutan-2-yl)amino)-8-oxooctanoyl)piperazin-1-yl)pyridin-2-yl)amino)-4-((2-methoxy-3-(1-methyl-1H-1,2,4-triazol-3-yl)phenyl)amino)-N-methylpyridazine-3-carboxamide]
TYK2 Degradation (NOMO-1, 10 nM): C (C: ≤20% TYK2 degradation)
TYK2 Degradation (NOMO-1, 100 nM): C (C: ≤20% TYK2 degradation)

CNC(=O)c1nnc(Nc2ccc(C#CC3CCN(C(=O)CCCCCCCCC(=O)N[C@H](C(=O)N4C[C@H](O)C[C@H]4C(=O)N[C@@H](C)c4ccc(-c5scnc5C)cc4)C(C)(C)C)CC3)cn2)cc1Nc1cccc(-c2ncn(C)n2)c1OC [CPD-121, 6-((5-((1-(10-(((S)-1-((2S,4R)-4-hydroxy-2-(((5)-1-(4-(4-methylthiazol-5-yl)phenyl)ethyl)carbamoyl)pyrrolidin-1-yl)-3,3-dimethyl-1-oxobutan-2-yl)amino)-10-oxodecanoyl)piperidin-4-yl)ethynyl)pyridin-2-yl)amino)-4-((2-methoxy-3-(1-methyl-1H-1,2,4-triazol-3-yl)phenyl)amino)-N-methylpyridazine-3-carboxamide]
TYK2 Degradation (NOMO-1, 10 nM): A (A: ≥60% TYK2 degradation)
TYK2 Degradation (NOMO-1, 100 nM): A (A: ≥60% TYK2 degradation)

CNC(=O)c1nnc(Nc2ccc(C(=O)NCCCC(=O)N[C@H](C(=O)N3C[C@H](O)C[C@H]3C(=O)N[C@@H](C)c3ccc(-c4scnc4C)cc3)C(C)(C)C)cn2)cc1Nc1cccc(-c2ncn(C)n2)c1OC [CPD-139, 6-((5-((4-(((S)-1-((2S,4R)-4-Hydroxy-2-(((S)-1-(4-(4-methylthiazol-5-yl)phenyl)ethyl)carbamoyl)pyrrolidin-1-yl)-3,3-dimethyl-1-oxobutan-2-yl)amino)-4-oxobutyl)carbamoyl)pyridin-2-yl)amino)-4-((2-methoxy-3-(1-methyl-1H-1,2,4-triazol-3-yl)phenyl)amino)-N-methylpyridazine-3-carboxamide]
TYK2 Degradation (NOMO-1, 10 nM): C (C: ≤20% TYK2 degradation)
TYK2 Degradation (NOMO-1, 100 nM): A (A: ≥60% TYK2 degradation)

CNC(=O)c1nnc(Nc2ccc(C#CC3CN(C(=O)CCC(=O)N[C@H](C(=O)N4C[C@H](O)C[C@H]4C(=O)N[C@@H](C)c4ccc(-c5scnc5C)cc4)C(C)(C)C)C3)cn2)cc1Nc1cccc(-c2ncn(C)n2)c1OC [CPD-122, 6-((5-((1-(4-(((S)-1-((2S,4R)-4-Hydroxy-2-(((S)-1-(4-(4-methylthiazol-5-yl)phenyl)ethyl)carbamoyl)pyrrolidin-1-yl)-3,3-dimethyl-1-oxobutan-2-yl)amino)-4-oxobutanoyl)azetidin-3-yl)ethynyl)pyridin-2-yl)amino)-4-((2-methoxy-3-(1-methyl-1H-1,2,4-triazol-3-yl)phenyl)amino)-N-methylpyridazine-3-carboxamide]
TYK2 Degradation (NOMO-1, 100 nM): C (C: ≤20% TYK2 degradation)

CNC(=O)c1nnc(Nc2ccc(C(=O)NCCC(=O)N[C@H](C(=O)N3C[C@H](O)C[C@H]3C(=O)N[C@@H](C)c3ccc(-c4scnc4C)cc3)C(C)(C)C)cn2)cc1Nc1cccc(-c2ncn(C)n2)c1OC [CPD-138, 6-((5-((3-(((S)-1-((2S,4R)-4-Hydroxy-2-(((S)-1-(4-(4-methylthiazol-5-yl)phenyl)ethyl)carbamoyl)pyrrolidin-1-yl)-3,3-dimethyl-1-oxobutan-2-yl)amino)-3-oxopropyl)carbamoyl)pyridin-2-yl)amino)-4-((2-methoxy-3-(1-methyl-1H-1,2,4-triazol-3-yl)phenyl)amino)-N-methylpyridazine-3-carboxamide]
TYK2 Degradation (NOMO-1, 100 nM): C (C: ≤20% TYK2 degradation)

CNC(=O)c1nnc(Nc2ccc(CNC(=O)CCCCCCCCC(=O)N[C@H](C(=O)N3C[C@H](O)C[C@H]3C(=O)N[C@@H](C)c3ccc(-c4scnc4C)cc3)C(C)(C)C)cn2)cc1Nc1cccc(-c2ncn(C)n2)c1OC [CPD-133, N1-((S)-1-((2S,4R)-4-hydroxy-2-(((S)-1-(4-(4-methylthiazol-5-yl)phenyl)ethyl)carbamoyl)pyrrolidin-1-yl)-3,3-dimethyl-1-oxobutan-2-yl)-N10-((6-((5-((2-methoxy-3-(1-methyl-1H-1,2,4-triazol-3-yl)phenyl)amino)-6-(methylcarbamoyl)pyridazin-3-yl)amino)pyridin-3-yl)methyl)decanediamide]
TYK2 Degradation (NOMO-1, 10 nM): A (A: ≥60% TYK2 degradation)
TYK2 Degradation (NOMO-1, 100 nM): A (A: ≥60% TYK2 degradation)
